Target: T1, MAT2A (Homo sapiens, UniProt P31153)
T1 construct: His6; made in house; host or cells: SF9 insect cells
Assay: MAT2A biochemical assay (colorimetric inorganic phosphate detection, PiColorLock)
Conditions: recombinant His6-tagged MAT2A 1 μg/ml; 60 minutes preincubation at 25° C.; L-Met 80 μM, ATP 100 μM; 60 minutes reaction; read at 623 nm; read-out: MAT2A Inhibition Score
Method: In the reaction catalyzed by MAT2A enzyme, L-Met and ATP were converted to SAM, inorganic phosphate, and inorganic diphosphate. […] The concentration of malachite green phosphomolybdate produced in the detection reaction is thus directly related to the quantity of product produced by the MAT2A enzyme. Multiple commercial kits exist for this method of phosphate detection and quantification, such as PiColorLock Gold (Innova Biosciences). Typical reaction was performed in 50 μl final volume, containing buffer (Tris, pH 8.0, 50 mM KCl, 15 mM MgCl2, 300 uM EDTA, bovine serum albumin at 0.005% w/v) and 1 μg/ml MAT2A. Compounds were added in 1 μl of DMSO at the desired concentration; a typical dose response curve contained ten points with three-fold dilution between compound concentrations. […] The reaction was allowed to proceed for 60 minutes at room temperature then halted by the addition of 13 μl of PiColor Lock reagent. After a further 5 minutes of incubation at room temperature, […] of PiColor Stabilizer was added and the reactions were further incubated at 25° C. for 25 minutes. […] Recombinant MAT2A protein was expressed in SF9 insect cells and purified by metal chelate affinity chromatography, using methods well known in the art. After expression of His6-tagged MAT2A cells were disrupted by 4 passes through an M-Yl 10 Micro fluidizer (Microfluidics) set to 500 psi, and then centrifuged at 22,000 rcf for 20 min at 4° C. The supernatant was harvested and loaded at 15 cm/h on a Histrap FF 5*1 ml column (GE) which was equilibrated with 50 mM Tris, 500 mM NaCl, pH7.4. Host cell contaminants were removed by washing the column with equilibration buffer followed by equilibration buffer containing 20 mM imidazole and 60 mM imidazole to baseline. MAT2A protein was eluted by the addition of buffer containing 250 mM imidazole, dialized into 50 mM NaCl, 50 mM Tris, pH 7.4, flash frozen in liquid nitrogen, and stored at −80° C. until use.

T1 sequence (P31153 whole entry): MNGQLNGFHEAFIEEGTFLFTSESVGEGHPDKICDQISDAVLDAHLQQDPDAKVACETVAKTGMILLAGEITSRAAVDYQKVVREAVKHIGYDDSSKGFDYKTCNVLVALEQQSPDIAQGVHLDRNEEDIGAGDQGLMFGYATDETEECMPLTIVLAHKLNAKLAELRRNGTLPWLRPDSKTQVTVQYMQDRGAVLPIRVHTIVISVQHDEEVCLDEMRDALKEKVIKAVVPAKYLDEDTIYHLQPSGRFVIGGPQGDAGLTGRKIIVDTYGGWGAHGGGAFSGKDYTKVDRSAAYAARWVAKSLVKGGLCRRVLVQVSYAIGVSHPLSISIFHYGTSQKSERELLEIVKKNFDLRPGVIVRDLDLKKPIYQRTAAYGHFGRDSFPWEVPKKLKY

SMILES	IC50 [nM]
COc1ccc(-c2c(Nc3ccc(O)cn3)[nH]c3c(-c4ccccc4)c(-c4ccccc4)nn3c2=O)cc1 [Compound 108, 5-(5-hydroxypyridin-2-ylamino)-6-(4-methoxyphenyl)-2,3-diphenylpyrazolo[1,5-a]pyrimidin-7(4H)-one]	< 100
Cc1[nH]c2c(N3CCCCC3)c(-c3ccccc3)nn2c(=O)c1-c1ccc2[nH]cnc2c1 [Compound 267, 6-(1H-benzo[d]imidazol-5-yl)-5-methyl-2-phenyl-3-(piperidin-1-yl)pyrazolo[1,5-a]pyrimidin-7(4H)-one]	< 100
COc1ccc(-c2c(Nc3ccc(OC)nn3)[nH]c3c(-c4ccccc4)c(-c4ccccc4)nn3c2=O)cc1 [Compound 124, 6-(4-methoxyphenyl)-5-((6-methoxypyridazin-3-yl)amino)-2,3-diphenylpyrazolo[1,5-a]pyrimidin-7(4H)-one]	< 100
O=c1c(-c2ccc3ncccc3c2)c(Nc2cc[nH]n2)[nH]c2c(-c3ccccc3)c(-c3ccccc3)nn12 [Compound 187, 5-((1H-pyrazol-3-yl)amino)-2,3-diphenyl-6-(quinolin-6-yl)pyrazolo[1,5-a]pyrimidin-7(4H)-one]	< 100
O=c1c(-c2ccc3ncccc3c2)c(Nc2ccon2)[nH]c2c(C3=CCCCC3)c(-c3ccccc3)nn12 [Compound 176, 3-cyclohexenyl-5-(isoxazol-3-ylamino)-2-phenyl-6-(quinolin-6-yl)pyrazolo[1,5-a]pyrimidin-7(4H)-one]	< 100
Cc1[nH]c2c(-c3ccccc3)c(-c3ccccc3F)nn2c(=O)c1-c1ccc2ncccc2c1 [Compound 205, 2-(2-fluorophenyl)-5-methyl-3-phenyl-6-(quinolin-6-yl)pyrazolo[1,5-a]pyrimidin-7(4H)-one]	< 100
CNC(=O)c1[nH]c2c(-c3ccccc3)c(-c3ccccc3)nn2c(=O)c1-c1ccc2ncccc2c1 [Compound 325]	100 to 1000
COc1ccc(-c2c(Nc3ncncn3)[nH]c3c(-c4ccccc4)c(-c4ccccc4)nn3c2=O)cc1 [Compound 132, 5-((1,3,5-triazin-2-yl)amino)-6-(4-methoxyphenyl)-2,3-diphenylpyrazolo[1,5-a]pyrimidin-7(4H)-one]	< 100
COc1ccc(-c2c(Nc3ccnc(OC)n3)[nH]c3c(C4=CCCCC4)c(-c4ccccc4)nn3c2=O)cc1 [Compound 156, 3-cyclohexenyl-6-(4-methoxyphenyl)-5-(2-methoxypyrimidin-4-ylamino)-2-phenyl-pyrazolo[1,5-a]pyrimidin-7(4H)-one]	< 100
COc1ccc(-c2c(Nc3ccncc3)[nH]c3c(C4=CCCCC4)c(-c4ccccc4)nn3c2=O)cc1 [Compound 297, 3-(cyclohex-1-en-1-yl)-6-(4-methoxyphenyl)-2-phenyl-5-(pyridin-4-ylamino)pyrazolo[1,5-a]pyrimidin-7(4H)-one]	< 100
COc1ccc(-c2c(Nc3cccnn3)[nH]c3c(-c4ccccc4)c(-c4ccccc4)nn3c2=O)cc1 [Compound 101, 6-(4-methoxyphenyl)-2,3-diphenyl-5-(pyridazin-3-ylamino)pyrazolo[1,5-a]pyrimidin-7(4H)-one]	< 100
O=c1c(-c2ccc(O)cc2)c(Nc2nc[nH]n2)[nH]c2c(-c3ccccc3)c(-c3ccccc3)nn12 [Compound 195, 5-((1H-1,2,4-triazol-3-yl)amino)-6-(4-hydroxyphenyl)-2,3-diphenylpyrazolo[1,5-a]pyrimidin-7(4H)-one]	< 100
Cc1[nH]c2c(-c3ccccc3)c(-c3ccccc3)nn2c(=O)c1-c1ccc(O)c(OCCN(C)C)c1 [Compound 292, 6-(3-(2-(dimethylamino)ethoxy)-4-hydroxyphenyl)-5-methyl-2,3-diphenylpyrazolo[1,5-a]pyrimidin-7(4H)-one]	< 100
Cc1[nH]c2c(N3CCCCC3)c(-c3ccccc3)nn2c(=O)c1-c1ccc(O)cc1 [Compound 262, 6-(4-hydroxyphenyl)-5-methyl-2-phenyl-3-(piperidin-1-yl)pyrazolo[1,5-a]pyrimidin-7(4H)-one]	< 100
Cc1[nH]c2c(N3CCCCC3)c(-c3ccccc3)nn2c(=O)c1-c1ccc(O)nc1 [Compound 309, 6-(6-hydroxypyridin-3-yl)-5-methyl-2-phenyl-3-(piperidin-1-yl)pyrazolo[1,5-a]pyrimidin-7(4H)-one]	100 to 1000
Cc1[nH]c2c(C3=CCCCC3)c(-c3ccccc3)nn2c(=O)c1-c1ccc2ncccc2c1 [Compound 216, 3-(cyclohex-1-en-1-yl)-5-methyl-2-phenyl-6-(quinolin-6-yl)pyrazolo[1,5-a]pyrimidin-7(4H)-one]	< 100
CC(=O)Nc1[nH]c2c(-c3ccccc3)c(-c3ccccc3)nn2c(=O)c1-c1ccc2ncccc2c1 [Compound 172, N-(7-oxo-2,3-diphenyl-6-(quinolin-6-yl)-4,7-dihydropyrazolo[1,5-a]pyrimidin-5-yl)acetamide]	< 100
COc1ccc(-c2c(Nc3ccc(N)nn3)[nH]c3c(-c4ccccc4)c(-c4ccccc4)nn3c2=O)cc1 [Compound 123, 5-((6-aminopyridazin-3-yl)amino)-6-(4-methoxyphenyl)-2,3-diphenylpyrazolo[1,5-a]pyrimidin-7(4H)-one]	< 100
Cc1[nH]c2c(N3CCCCC3)c(-c3ccccc3)nn2c(=O)c1-c1ccc2nccnc2c1 [Compound 255, 5-methyl-2-phenyl-3-(piperidin-1-yl)-6-(quinoxalin-6-yl)pyrazolo[1,5-a]pyrimidin-7(4H)-one]	< 100
O=C(CO)NCc1[nH]c2c(-c3ccccc3)c(-c3ccccc3)nn2c(=O)c1-c1ccc2ncccc2c1 [Compound 227, 2-hydroxy-N-((7-oxo-2,3-diphenyl-6-(quinolin-6-yl)-4,7-dihydropyrazolo[1,5-a]pyrimidin-5-yl)methyl)acetamide]	< 100
Cc1[nH]c2c(-c3ccccc3)c(-c3ccccc3)nn2c(=O)c1-c1ccc2c(c1)NC(=O)CO2 [Compound 257, 6-(5-methyl-7-oxo-2,3-diphenyl-4,7-dihydropyrazolo[1,5-a]pyrimidin-6-yl)-2H-benzo[b][1,4]oxazin-3 (4H)-one]	< 100

More lines, now with the values ahead:

IC50 [nM]	SMILES
< 100	COc1ccc(-c2c(C)[nH]c3c(C4=CCOCC4)c(-c4ccccc4)nn3c2=O)cc1 [Compound 218, 3-(3,6-dihydro-2H-pyran-4-yl)-6-(4-methoxyphenyl)-5-methyl-2-phenylpyrazolo[1,5-a]pyrimidin-7(4H)-one]
< 100	Cc1[nH]c2c(-c3ccccc3)c(-c3ccccc3)nn2c(=O)c1-c1ccc(O)c(F)c1 [Compound 238, 6-(3-fluoro-4-hydroxyphenyl)-5-methyl-2,3-diphenylpyrazolo[1,5-a]pyrimidin-7(4H)-one]
< 100	COc1ccc(-c2c(C)[nH]c3c(C4=CCCOC4)c(-c4ccccc4)nn3c2=O)cc1 [Compound 219, 3-(5,6-dihydro-2H-pyran-3-yl)-6-(4-methoxyphenyl)-5-methyl-2-phenylpyrazolo[1,5-a]pyrimidin-7(4H)-one]
< 100	Cc1[nH]c2c(-c3ccccc3)c(-c3ccccc3)nn2c(=O)c1-c1ccc2ncccc2c1 [Compound 204, 5-methyl-2,3-diphenyl-6-(quinolin-6-yl)pyrazolo[1,5-a]pyrimidin-7(4H)-one]
100 to 1000	COc1ccc(-c2c(Cn3cnnn3)[nH]c3c(-c4ccccc4)c(-c4ccccc4)nn3c2=O)cc1 [Compound 338, 5-((1H-tetrazol-1-yl)methyl)-6-(4-methoxyphenyl)-2,3-diphenylpyrazolo[1,5-a]pyrimidin-7(4H)-one]
< 100	COc1ccc(-c2c(CN)[nH]c3c(C4=CCCCC4)c(-c4ccccc4)nn3c2=O)cc1 [Compound 232, 5-(aminomethyl)-3-(cyclohex-1-en-1-yl)-6-(4-methoxyphenyl)-2-phenylpyrazolo[1,5-a]pyrimidin-7(4H)-one]
< 100	COc1ccc(-c2c(C)[nH]c3c(-c4cc[nH]c4)c(-c4ccccc4)nn3c2=O)cc1 [Compound 220, 6-(4-methoxyphenyl)-5-methyl-2-phenyl-3-(1H-pyrrol-3-yl)pyrazolo[1,5-a]pyrimidin-7(4H)-one]
< 100	COc1ccc(-c2c(Nc3ccn[nH]3)[nH]c3c(C4=CCCCC4)c(-c4ccccc4)nn3c2=O)cc1 [Compound 189, 5-((1H-pyrazol-5-yl)amino)-3-(cyclohex-1-en-1-yl)-6-(4-methoxyphenyl)-2-phenyl pyrazolo[1,5-a]pyrimidin-7(4H)-one]
< 100	COc1ccc(-c2c(Nc3ccncn3)[nH]c3c(-c4ccccc4)c(-c4ccccc4)nn3c2=O)cc1 [Compound 116, 6-(4-methoxyphenyl)-2,3-diphenyl-5-(pyrimidin-4-ylamino)pyrazolo[1,5-a]pyrimidin-7(4H)-one]
